Test results reported in patent publication EP1379634B1 (THE UNIVERSITY OF GEORGIA RESEARCH FOUNDATION, INC., priority 2001, dated 2002).
Starred links: 1 amine or outer side, 2 acyl side, 3 side chain; linkers in the order of their positions; H or OH if unused. Residues, ends and D or L forms follow the SMILES beside them. *: point of attachment. AFC = O=c1cc(C(F)(F)F)c2ccc(N*)cc2o1; Suc = O=C(CCC(=O)[*:2])[*:1]

Tested on: T. solium purified cysteine protease
Assay: Human IgG degradation, western blot (Step IV)
Format: biochemical, Taenia solium
Conditions: overnight, 37°C, 18 hrs
Description: To conduct this assessment, a western blot was performed. IgG digestion was detected by incubating 20 ul of T. solium purified enzyme or T. […] extract with 1 ug of human IgG (Sigma, St. Louis) in a final volume of 100 ul of assay buffer. Exogenous thiol activation was assessed by incubating the assay in the presence or absence of cysteine. The catalytic class of the IgG protease was determined by pre-incubating the following proteinase inhibitors at their active concentrations, with the enzyme: E 64 (10^-6 M , cysteine proteinases), phenylmethylsulfonyl fluoride (PMSF) (10^-3 M, serine proteinases), pepstatin A (10^-6M, aspartic proteinases), and 1,10 phenanthroline (10^-3 M, metalloproteinases), and the vehicle, Mu-Leu-Tyr-AFC (10^-3 M). After addition of IgG, the assay was incubated overnight (37°C, 18 hrs). Subsequently, 100 ul of the mixture was boiled in sodium dodecyl sulfate polyacrylamide gel electrophoresis (SDS-PAGE) sample buffer with 2% 2-mercaptoethanol, separated by 12.5% SDS-PAGE, and blotted onto a polyvinylidene difluoride membrane. Tris buffered saline containing 0.1 % bovine serum albumin and 0.05% Tween 20 (TBS-BSA) was used to block nonspecific binding. […]

Row | SMILES | inhibition of cleavage of human IgG
1 | CC(C)CC(NC(=O)C1OC1C(=O)O)C(=O)NCCCCNC(=N)N (centres unmarked) [E64, reference compound] | Inhibition was noted
2 | CC(C)C[C@H](NC(=O)CCC(=O)O)C(=O)N[C@@H](Cc1ccc(O)cc1)C(=O)Nc1ccc2c(C(F)(F)F)cc(=O)oc2c1 [suc-Leu-Tyr-AFC] (Suc-Leu-Tyr-{AFC}) | ability to inhibit
